Data as given in PubChem BioAssay AID488890 (Southern Research Specialized Biocontainment Screening …, 2010).
Records with an inconclusive call do not appear. The source made the active and inactive calls. How the calls were made is not given here.

What follows are molecules tested on Mycobacterium tuberculosis non-replicating, growth inhibition (assay: growth inhibition of non-replicating M. tuberculosis (AID 488890)).
`CCCNC(=O)OCC12CC3CC(CC(C3)C1)C2` gave an IC50 of 0.65 µM. In the case of `Clc1ccc(CN2C3=NCCCN3c3ccccc32)cc1`, the IC50 is reported as 12.3 µM (inactive). For `CCOC(=O)c1c(-c2ccccc2)csc1NC(=O)CCN1CCOCC1`, the IC50 was 24.4 µM (inactive). `CN(C)c1c2ccccc2nc2c(F)c(F)c(F)c(F)c12` gave an IC50 of 5.75 µM. For `Nc1nc2ccccc2n1C(=O)c1ccc(F)cc1`, the IC50 was 13.2 µM (inactive). For `CCCOC(=O)c1ccc(NC(=O)c2ccc(Br)o2)cc1`, the IC50 was 2.96 µM. `Cc1ccc(NC(=O)CC2SC3=NCCCN3C2=O)c(C)c1` (centres undefined) was tested, and the IC50 was 18.8 µM (inactive). Work on `CC(C)COc1ccc(C(=O)CCN2CCCCC2)cc1` yielded an IC50 of 9.7 µM. `CC(=O)Nc1sc2c(c1-c1nc3ccccc3s1)CCN(C(C)C)C2` showed an IC50 of 6.35 µM. With `O=C(CN1CCN(c2ccc([N+](=O)[O-])cc2)CC1)Nc1ccccn1` the IC50 was 30.8 µM (inactive). Work on `Cc1cnc(C(=O)NNC(=O)c2ccc(Br)cc2)cn1` yielded an IC50 of 4.88 µM. For `Cc1cc(C)c2nc(/N=C(\N)NC(=O)Nc3ccccc3)nc(C)c2c1`, the IC50 was 13.3 µM (inactive). With `O=C(NCc1cccs1)c1cc(-c2ccc(O)cc2)on1` the IC50 was 23.3 µM (inactive). `C#CCOc1coc(COC(=O)c2ccccc2)cc1=O` was tested, and the IC50 was 48.5 µM (inactive). `Cc1cc2cc(CNC(=O)COc3ccccc3)ccc2n1C` was tested, and the IC50 was 26 µM (inactive). `O=c1[nH]c(=O)n(Cc2ccccc2Cl)c(O)c1/C=C1/C=CC=N1` was tested, and the IC50 was 0.25 µM. In the case of `O=C(NCc1ccc(F)cc1)c1ccc(Br)o1`, the IC50 is reported as 0.51 µM. With `CCCCCOc1ccc(Br)cc1/C(C)=N/NC1=NCCN1` the IC50 was 7.59 µM. With `O=[N+]([O-])c1cc(Cl)cc(/C=N/Nc2nc3ccccc3s2)c1O` the IC50 was 1.8 µM. For `Cc1ccc(C)c(NC(=O)COC(=O)c2cc3ccccc3oc2=O)c1`, the IC50 was 17 µM (inactive). For `Cc1ccccc1OCCC(=O)OCC(=O)NNC(=O)c1cccs1`, the IC50 was 21.4 µM (inactive). In the case of `CC(=O)Oc1c(-c2ccco2)oc2ccccc2c1=O`, the IC50 is reported as 10.6 µM (inactive). In the case of `O=C(Nc1nnc(C2COc3ccccc3O2)o1)c1ccc(F)cc1` (centres undefined), the IC50 is reported as 7.16 µM. Molecule `O=C(Nc1nc(-c2cccs2)cs1)c1ccc([N+](=O)[O-])o1` has an IC50 of 2.08 µM. `O=C(N/N=C\c1ccc([N+](=O)[O-])s1)C1COc2ccccc2O1` (centres undefined) gave an IC50 of 4.94 µM. In the case of `N#CC(C(=O)NCc1ccco1)c1nc2ccccc2nc1N1CCOCC1` (centres undefined), the IC50 is reported as 15.9 µM (inactive). In the case of `COc1ccc(C(C#N)=C2C=CC(=NO)C=C2)cc1`, the IC50 is reported as 16 µM (inactive). For `Cc1cc(C)n(C(=O)c2ccc([N+](=O)[O-])cc2[N+](=O)[O-])n1`, the IC50 was 24.3 µM (inactive). Work on `CC(=O)Nc1cccc(-c2nc3ccccc3c(=O)o2)c1` yielded an IC50 of 7.84 µM. `O=C1/C(=C/c2ccco2)CCC1C1CCCC1` (centres undefined) was tested, and the IC50 was 13.8 µM (inactive). With `COc1ccc(C(=O)N/N=C(\c2ccccc2)c2ccccn2)cc1` the IC50 was 3.27 µM. For `Cc1cc(Br)ccc1OCCCCN1CCCCC1`, the IC50 was 14.4 µM (inactive). In the case of `CCOC(=O)COc1ccc2c(c1)C(=O)CC(C)(c1cccnc1)O2` (centres undefined), the IC50 is reported as 10.2 µM (inactive). `CCCc1ccc(OCc2ccc(C(=O)N/N=C/c3cccnc3)o2)cc1` was tested, and the IC50 was 8.42 µM. Molecule `CCOc1cccc2cc(C(=O)Nc3nccs3)c(=O)oc12` has an IC50 of 2.26 µM. With `c1ccc(C[C@H]2CNCCN2CCCCC2CCCCC2)cc1` the IC50 was 17.7 µM (inactive). With `O=C(CC1CCCC1)OCn1nnc2ccccc2c1=O` the IC50 was 14 µM (inactive). With `Nc1c(C(=O)NC2CCCCC2)nsc1C(=O)OCC(=O)NC1CCCCC1` the IC50 was 3.27 µM. For `CC(C)(C)OC(=O)N/N=C\c1ccc([N+](=O)[O-])s1`, the IC50 was 13.6 µM (inactive). With `CC(=O)c1ccc(C(=O)Nc2nnc(-c3ccc(Cl)cc3)o2)cc1` the IC50 was 4.03 µM. `C=CCn1c(NC(=O)c2ccccc2)nc2ccccc21` was tested, and the IC50 was 21.6 µM (inactive). In the case of `Cc1cccc(NCc2nnc(-c3ccccc3)o2)c1C`, the IC50 is reported as 4.9 µM. For `CC1=NN(c2ccccc2)C(=O)C1C(=O)c1ccccc1` (centres undefined), the IC50 was 15.9 µM (inactive). `CC1=NN(C(=O)c2ccc(C)o2)C(O)(c2ccccc2)C1` (centres undefined) gave an IC50 of 3.05 µM. In the case of `COc1cccc(CN2CCC(N(CCc3ccccc3)Cc3ccccc3)CC2)c1OC`, the IC50 is reported as 14.3 µM (inactive). In the case of `O=C(COC(=O)c1ccc(Cl)s1)c1ccc[nH]1`, the IC50 is reported as 6.38 µM. With `Cc1nnsc1C(=O)N/N=C/c1ccc2ccccc2c1O` the IC50 was 0.48 µM. For `Cc1ccc(OC(=O)CCS(=O)(=O)c2ccc(C)cc2)cc1`, the IC50 was 11.8 µM (inactive). With `O=C(Nc1ccc(N2CCN(C(=O)c3ccco3)CC2)c(Cl)c1)c1cccs1` the IC50 was 9.56 µM. Molecule `COc1cccc2cc(C(=O)NCc3ccc(F)cc3)c(=N)oc12` has an IC50 of 8.67 µM. `O=C1c2cccc3c([N+](=O)[O-])ccc(c23)C(=O)N1c1ccc(Cl)cn1` gave an IC50 of 0.69 µM. For `O=C(CCN1CCC(c2ccccc2)C1)c1ccccc1` (centres undefined), the IC50 was 33.1 µM (inactive). `CCC(C)n1nnc2c(=O)oc3ccccc3c21` (centres undefined) gave an IC50 of 5.63 µM. `Cc1ccc(NC(=O)C2COc3ccccc3O2)nc1` (centres undefined) showed an IC50 of 6.26 µM. `O=C(OCn1nnc2ccccc2c1=O)c1ccc(N2CCOCC2)c([N+](=O)[O-])c1` was tested, and the IC50 was 22.8 µM (inactive). With `COC(=O)C1=C(N)OC2=C(C(=O)CC(C)(C)C2)C1c1cccnc1` (centres undefined) the IC50 was 14.5 µM (inactive). `CC(/C=C/c1ccccc1F)=N\NC(=O)c1ccccc1` gave an IC50 of 3.87 µM. Work on `Cn1nnc(NC(=O)COc2ccc(C3CCCCC3)cc2)n1` yielded an IC50 of 1.68 µM. For `O=C(Nc1nnc(-c2ccco2)o1)c1cccc2ccccc12`, the IC50 was 19.1 µM (inactive). In the case of `COc1ccc(C(=O)NCC(=O)N/N=C/c2ccc([N+](=O)[O-])o2)cc1OC`, the IC50 is reported as 4.97 µM. `CCOC(=O)/C=C1\Nc2ccccc2OC1=O` gave an IC50 of 3 µM. `Cc1ccc(NC(=O)CN(C)C2CCCCC2)cc1Br` gave an IC50 of 0.35 µM. `Cc1ccc2[nH]c(C)c(CCNC(=O)c3cc4cc([N+](=O)[O-])ccc4oc3=O)c2c1` showed an IC50 of 9.15 µM. `Cc1ccc(-c2noc(CCCC(=O)Nc3cccnc3)n2)cc1` was tested, and the IC50 was 7.61 µM. With `O=C(Cc1ccc([N+](=O)[O-])cc1)N/N=C/c1ccc([N+](=O)[O-])o1` the IC50 was 21.8 µM (inactive). `COc1ccc(C(=O)C=CNNC(=O)c2ccc(Cl)cc2)cc1` gave an IC50 of 0.48 µM. For `CC(C)[C@H](NC(=O)c1ccc(Br)cc1)C(=O)NC1CCCCC1`, the IC50 was 1.37 µM. With `CCOC(=O)Nc1cccc(OCC(=O)Nc2ccccc2OC)c1` the IC50 was 16.6 µM (inactive). In the case of `COc1cc(C(=O)N/N=C/c2cc([N+](=O)[O-])cs2)cc(OC)c1OC`, the IC50 is reported as 3.58 µM. With `CCOC(=O)COc1ccc2c3c(c(=O)oc2c1C)CCC3` the IC50 was 14 µM (inactive). For `O=C(COC(=O)CCc1c[nH]c2ccccc12)NCc1ccc(Cl)cc1`, the IC50 was 7.82 µM. With `N#Cc1ccc(N=c2ssnc2Cl)cc1` the IC50 was 18.1 µM (inactive). `CCOC(=O)COc1cc(O)c2c(=O)cc(-c3ccccc3)oc2c1` showed an IC50 of 0.44 µM. For `C/C(=N\Nc1nc2ccccc2[nH]1)c1cc2ccccc2o1`, the IC50 was 8.88 µM. `CCCCCCCNC(=O)C1(CC2CC(c3cccc(Br)c3)=NO2)CCNCC1` (centres undefined) was tested, and the IC50 was 13.7 µM (inactive). In the case of `CC1=NNC(=O)/C1=C\c1cn(-c2ccccc2)nc1-c1cccs1`, the IC50 is reported as 4.96 µM. In the case of `CCCCc1ccc(NS(=O)(=O)c2c(C)n(C)c(=O)n(C)c2=O)cc1`, the IC50 is reported as 27.1 µM (inactive). For `Cc1cc(NC2CCCCC2)nc(NCc2ccccc2)n1`, the IC50 was 3.65 µM. With `Cc1c(CN(C)C)c2c(n1Cc1ccccc1)C(=O)c1ccc(Br)cc1-2` the IC50 was 16 µM (inactive). `O=[N+]([O-])c1ccc(S(=O)(=O)c2cccc(C(F)(F)F)c2)nc1` was tested, and the IC50 was < 0.1 µM. For `CCCOc1ccc(N2C(=O)CC(N3CCCC(C(=O)N4CCCC4)C3)C2=O)cc1` (centres undefined), the IC50 was 30.1 µM (inactive). With `O=C(COC(=O)c1cccs1)NCCC1=CCCCC1` the IC50 was 14.1 µM (inactive). For `CC(C)(C)c1ccc(OCCC(=O)OCC(=O)NC2CC2)cc1`, the IC50 was 23.6 µM (inactive). For `CCc1cccc(OCCCn2ccnc2)c1`, the IC50 was 18.7 µM (inactive). Molecule `CCOc1ccc(C(=O)N/N=C/c2cccc3cccnc23)cc1` has an IC50 of 4.65 µM. With `O=C(NN=C1C2CC3CC1CC(Cl)(C3)C2)c1cccs1` the IC50 was 23.7 µM (inactive). `CCOC(=O)COn1c(-c2cccc(Cl)c2)nc2ccc([N+](=O)[O-])cc21` was tested, and the IC50 was 19.6 µM (inactive). For `CCOC(=O)CN1NC2(CCCC(C)C2)NC1=S` (centres undefined), the IC50 was 11.9 µM (inactive). With `Cc1ccn2nc(S(=O)(=O)Nc3c(F)cccc3F)nc2n1` the IC50 was 17.5 µM (inactive). Work on `CCOC(=O)C1=C(c2ccccc2)NC(N)=NC1c1ccc(OCc2ccc(Cl)cc2)c(OC)c1` (centres undefined) yielded an IC50 of 4.25 µM. In the case of `COC(=O)COc1cccc(NC(=O)c2cccc(C)c2)c1`, the IC50 is reported as 9.25 µM. For `O=C(Cc1ccccc1)N/N=C/c1ccc([N+](=O)[O-])s1`, the IC50 was 14 µM (inactive). For `Cc1ccc(/C(O)=C/c2nc3ccccc3oc2=O)cc1`, the IC50 was 4.77 µM. With `CC(C)Oc1ccc(C(=O)CCN2CCCCC2)cc1` the IC50 was 6.21 µM. In the case of `CCCn1nnnc1NC(=O)COc1ccc(Br)cc1`, the IC50 is reported as 4.62 µM. `O=c1[nH]c(O)c(/C=C2/C=CC(c3cc(Cl)ccc3Cl)=N2)c(=O)[nH]1` gave an IC50 of 0.34 µM. `Sc1oc(-c2ccccc2)cc1C=Nc1ccccc1` was tested, and the IC50 was 26 µM (inactive). For `CCSc1ncc(/C=N/Nc2ccc(Cl)cc2)n1C`, the IC50 was 6.58 µM. `COc1ccccc1OCCN1CSC(=S)N(C)C1` showed an IC50 of 8.14 µM. In the case of `C/C(=N/Nc1ccnc2cc(Cl)ccc12)c1ccc(N)cc1`, the IC50 is reported as 21.6 µM (inactive). `CCC(=O)Nc1nc2ccccc2n1Cc1ccc(C)cc1` was tested, and the IC50 was 20.5 µM (inactive). `Clc1ccccc1CSc1nnc([C@@H]2CCCN2)o1` was tested, and the IC50 was 12.2 µM (inactive). `O=C(NCc1ccc(Cl)cc1)c1n[nH]c([N+](=O)[O-])c1Cl` was tested, and the IC50 was 13.9 µM (inactive). With `O=C(OCn1nnc2ccccc2c1=O)c1ccc(Br)o1` the IC50 was 11.6 µM (inactive). In the case of `CC(C)CN(Cc1c(O)ccc2ccccc12)CC(C)C`, the IC50 is reported as 20.4 µM (inactive). `COc1ccc(CCNc2cc(-c3ccccc3)nc3ncnn23)cc1` gave an IC50 of 0.49 µM. For `CC1=CC(C)(C)Nc2ccc(OC(=O)CN3C(=O)c4ccccc4C3=O)cc21`, the IC50 was 9.07 µM. `COc1ccc(NC(=O)c2ccc(-c3ccc([N+](=O)[O-])cc3)o2)cc1OC` was tested, and the IC50 was 3.93 µM. With `CCCOC(=O)c1ccc(-c2ccc(C=O)o2)cc1` the IC50 was 1.27 µM. `COc1cc(OC)cc(-c2nc3ccccc3c(=O)o2)c1` showed an IC50 of 2.33 µM. In the case of `O=C(N/N=C/c1c(O)ccc2ccccc12)c1ccc(Br)o1`, the IC50 is reported as < 0.1 µM. `Cc1cc(C(=O)N/N=C/c2ccc(OC(=O)c3ccccc3Br)cc2)n[nH]1` was tested, and the IC50 was 15.6 µM (inactive). For `CCCCn1c(=O)c(C(=O)Nc2ncccc2C)c(O)c2ccccc21`, the IC50 was 3.81 µM. In the case of `COc1ccc(C2=NOC(COC(=O)c3ccc4ccccc4n3)C2)cc1` (centres undefined), the IC50 is reported as 5.43 µM.
